“Also recorded” adds a separate entry of the source.
Key:
SHP1 = target: T1, SHP1 (Homo sapiens, UniProt P29350); test: Vanadate protection jump-dilution experiment; assay type: biochemical
T1 construct: SHP1, residues 245-543; made in house; host or cells: E. coli BL21(DE3)
Description: To further understand the mode of M029 action and ascertain whether M029 binds the SHP1 active site or a yet undefined novel site in SHP1, we performed a vanadate (VO4 ^3−) protection experiment. Vanadate is a reversible and competitive PTP inhibitor,^[ [76], [77] ^] and thus excessive vanadate would be expected to fully occupy the PTP active site and prevent covalent modifications of residues within the active site pocket. In this assay, SHP1 was co‐incubated with 30 µM M029 and 500 µM sodium orthovanadate or vehicle control for 30 min. The SHP1‐inhibitor complex was then rapidly diluted 100‐fold into a buffered solution containing 10 mM pNPP, and immediately, the absorbance at 405 nm was monitored over time to determine the remaining phosphatase activity.

B16-F10 = test: CCK8 cytotoxicity; assay type: cell-based; conditions: up to 50 µM, 24 hours
Description: (§1) Figure S3. Cancerous cells (MC38, EO771, and B16-F10), non-cancerous cells (HEK293), and immune cells (Jurkat and Raw264.7) were treated with M029 at different doses for 24 hours, and the cell viability was determined by the CCK8 experiments using DMSO-treated cells as a control. […] Results were analyzed using GraphPad Prism 10.4.2. The figure is plotted as average ± standard error of the mean (SEM).
(§2) Cytotoxicity: HEK293, MC38, EO771, RAW264.7 cells in DMEM media [supplemented with 10% (v/v) fetal bovine serum and penicillin (100 units/ml)/streptomycin (100 μg/ml)] and Jurkat T cells in RPMI 1640 media [supplemented with 10% (v/v) fetal bovine serum and penicillin (50 units/ml)/streptomycin (50 μg/ml)] were dispensed in clear flat-bottom 96-well plates at the density of 5,000 cells per well and culture for 16 hours under 37 °C with 5% CO2. M029 of different concentrations or DMSO was added to each well, followed by additional incubation for 24 hours. All wells were then treated with 5 µL of CCK8 reagent (Abcam, #ab228554) followed by 4 hours of incubation. OD460 of the reaction mixture was detected using a Spectra MAX340 microplate spectrophotometer (Molecular Devices) and was used to determine the percent growth inhibition of M029 on each cell line. Data were fitted using Prism GraphPad 10.1.1.

EO771 = test: CCK8 cytotoxicity; assay type: cell-based; conditions: up to 50 µM, 24 hours
Description: as §1, §2

HEK293 = test: CCK8 cytotoxicity; assay type: cell-based; conditions: up to 50 µM, 24 hours
Description: as §1, §2

Jurkat T cells = test: CCK8 cytotoxicity; assay type: cell-based; conditions: up to 50 µM, 24 hours
Description: as §1, §2

MC38 = test: CCK8 cytotoxicity; assay type: cell-based; conditions: up to 50 µM, 24 hours
Description: as §1, §2

Raw264.7 cells = test: CCK8 cytotoxicity; assay type: cell-based; conditions: up to 50 µM, 24 hours
Description: as §1, §2

MC38 tumors = MC38 tumors in nude mice; assay type: in vivo; conditions: 25 mg/kg
Excerpt: To further establish whether the inhibitory effects of M029 on tumor progression could be attributable to enhanced antitumor immune responses, we treated MC38 tumors in nude mice. […] To evaluate the importance of CD8^+ T and NK cells in M029‐induced antitumor activity, we induced CD8^+ T cell or NK cell depletion in the MC38 syngeneic model using anti‐CD8 or anti‐NK1.1 antibodies as described in Figure 6c. […] These findings are consistent with the known role of SHP1 in T cells and with our in vitro data that indicate M029 enhances T cell activation with no direct effect on tumor cells. […] These findings align with previous reports that activated CD8^+ T cells recruit NK cells to tumors through releasing cytokines and chemokines like IFN‐γ.^[ [92] ^] The observed changes in immune activity induced by M029, such as increased tumor infiltration of cytotoxic CD8^+ T cells, enhanced T cell cytotoxicity and effector function, as well as improved NK cell infiltration and activation, collectively contribute to the anticancer effects exerted by M029 treatment.
Figure 6 Cytotoxic T‐cell activity is necessary for M029 antitumor activity. […] C57BL/6 mice were injected with anti‐CD8 or anti‐NK1.1 antibodies every 3–4 days for 8 days after tumor inoculation. […]

T1 sequence (P29350 245-543): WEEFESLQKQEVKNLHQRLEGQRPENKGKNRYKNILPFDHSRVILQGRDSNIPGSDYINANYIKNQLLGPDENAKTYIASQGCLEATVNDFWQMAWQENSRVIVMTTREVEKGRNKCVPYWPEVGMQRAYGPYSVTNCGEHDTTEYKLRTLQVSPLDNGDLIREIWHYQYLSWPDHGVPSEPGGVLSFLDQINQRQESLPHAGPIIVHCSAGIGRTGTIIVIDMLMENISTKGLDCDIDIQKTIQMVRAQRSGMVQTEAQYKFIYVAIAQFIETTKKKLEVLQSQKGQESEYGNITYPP

N#Cc1ccsc1NS(=O)(=O)c1ccc(NC(=O)CCl)cc1 [M029, 2-Chloro-N-(4-(N-(3-cyanothiophen-2-yl)sulfamoyl)phenyl)acetamide]
SHP1 protection from inactivation by vanadate (SHP1; 30 µM M029 + 500 µM sodium orthovanadate, 30 min, 100-fold dilution): did not show a significant difference; also recorded: not protected from M029 inactivation | residual phosphatase activity after 100-fold jump dilution, compound alone (SHP1; 30 µM M029, 30 min): Little residual phosphatase activity | cytotoxicity, B16-F10 (B16-F10): No significant toxicity; also recorded: no significant cytotoxicity | cytotoxicity, EO771 (EO771): No significant toxicity; also recorded: no significant cytotoxicity | cytotoxicity, HEK293 (HEK293): No significant toxicity; also recorded: no significant cytotoxicity | cytotoxicity, Jurkat T cells (Jurkat T cells): No significant toxicity; also recorded: no significant cytotoxicity | cytotoxicity, MC38 (MC38): No significant toxicity; also recorded: no significant cytotoxicity | cytotoxicity, Raw264.7 (Raw264.7 cells): No significant toxicity; also recorded: no significant cytotoxicity | MC38 tumor growth in nude mice (MC38 tumors): ineffective in inhibiting tumor growth; also recorded: no significant

— publication PMC12833730, “Discovery of a First‐in‐Class Covalent Allosteric SHP1 Inhibitor with Immunotherapeutic Activity” (Angewandte Chemie (International Ed. in English), 2025)
